Among the data in patent US11236046B2, “Substituted heterocyclic sulfonamide compounds useful as TRPA1 modulators” (Genentech, Inc., priority 2013, dated 2022) are IC50 values, retold here.

One may read the IC50 as the concentration needed to halve the response being measured.

Sequence of human TRPA1 (O75762 whole entry): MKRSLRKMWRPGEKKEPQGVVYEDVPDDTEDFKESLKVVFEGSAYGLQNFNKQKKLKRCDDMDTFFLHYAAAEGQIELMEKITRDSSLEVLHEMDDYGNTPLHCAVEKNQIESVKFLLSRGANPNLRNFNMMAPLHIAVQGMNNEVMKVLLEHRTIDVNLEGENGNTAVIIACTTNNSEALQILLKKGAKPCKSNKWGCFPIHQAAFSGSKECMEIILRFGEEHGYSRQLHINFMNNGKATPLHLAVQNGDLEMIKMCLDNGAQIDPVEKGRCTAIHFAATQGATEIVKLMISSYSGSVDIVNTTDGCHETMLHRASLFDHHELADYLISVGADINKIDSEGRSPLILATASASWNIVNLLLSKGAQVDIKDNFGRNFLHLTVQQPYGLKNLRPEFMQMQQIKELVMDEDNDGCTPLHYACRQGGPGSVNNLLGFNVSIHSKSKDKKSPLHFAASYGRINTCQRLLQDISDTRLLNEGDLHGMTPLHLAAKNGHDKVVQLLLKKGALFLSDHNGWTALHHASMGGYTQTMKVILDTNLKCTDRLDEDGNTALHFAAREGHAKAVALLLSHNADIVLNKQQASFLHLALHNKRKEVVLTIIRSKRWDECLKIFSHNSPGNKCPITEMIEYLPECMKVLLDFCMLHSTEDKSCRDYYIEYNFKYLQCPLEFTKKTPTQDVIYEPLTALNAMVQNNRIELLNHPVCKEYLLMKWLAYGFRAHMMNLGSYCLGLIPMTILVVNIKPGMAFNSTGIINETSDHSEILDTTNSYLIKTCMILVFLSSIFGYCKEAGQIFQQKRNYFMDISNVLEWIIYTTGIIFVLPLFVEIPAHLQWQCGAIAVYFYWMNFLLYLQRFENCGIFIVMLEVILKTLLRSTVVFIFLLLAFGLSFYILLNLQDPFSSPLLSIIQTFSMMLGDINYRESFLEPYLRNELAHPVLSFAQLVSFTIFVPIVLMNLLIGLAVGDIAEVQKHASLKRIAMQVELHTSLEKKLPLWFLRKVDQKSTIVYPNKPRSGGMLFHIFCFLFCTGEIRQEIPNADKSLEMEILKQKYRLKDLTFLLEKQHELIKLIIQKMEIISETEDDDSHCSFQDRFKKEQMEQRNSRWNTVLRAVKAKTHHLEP

The assay has as its target human TRPA1 (Homo sapiens (Human), UniProt O75762). The assay is described as follows: FLIPR Tetra calcium influx assay, block of cinnamaldehyde-induced calcium influx in CHO cells expressing TRPA1 (human). Format: cell-based. Conditions: 20 min compound incubation, 75 uM cinnamaldehyde (~EC80), Hill coefficient fixed to 1.5, read-out: hTRPA1 AUC IC50. How it is done:
IC50 Determinations of Exemplified Compounds.
IC50s (effective concentration) of compounds on the human and rat TRPA1 channels were determined using a FLIPR Tetra instrument. CHO cells expressing TRPA1 were plated into 384-well plates, incubated overnight at 37C, and loaded with BD calcium indicator dye for 1 hr at 37° C. followed by 15 minutes. at room temperature. The assay buffer was Hank's Balanced Salt Solution (HBSS) containing 20 mM HEPES (pH readjusted to 7.4) along with 0.02% BSA.
Following dye load and plate cool down, compounds were added to the cells using FLIPR Tetra. Plates were then incubated with compounds for 20 minutes at room temperature prior to adding agonist. Following this incubation, ˜EC80 concentration of cinnamaldehyde (75 uM for human TRPA1 and 45 uM for rat TRPA1) was added to active the channels and block of cinnamaldehyde induced calcium influx was measured.
Fixing the Hill coefficient will generally reduce variability of the IC50 determination. The IC50s were individually examined to make sure the MIN and MAX points were set correctly prior to validation of the results.
In the case of `O=C(NCc1cc(Cl)nc(-c2ccc(C(F)F)nc2)c1)[C@@H]1C[C@@H](F)CN1S(=O)(=O)c1ccc(F)cc1` [Example 60, (2S,4R)—N-[[2-chloro-6-[6-(difluoromethyl)-3-pyridyl]-4-pyridyl]methyl]-4-fluoro-1-(4-fluorophenyl)sulfonyl-pyrrolidine-2-carboxamide], the IC50 amounted to 55 nM.

Regarding `O=C(NCc1cc(-c2cnc(C(F)(F)F)nc2)nc(-c2cnc(C(F)(F)F)nc2)c1)[C@@H]1C[C@@H](F)CN1S(=O)(=O)c1ccc(F)cc1` [Example 61, (2S,4R)—N-[[2,6-bis[2-(trifluoromethyl)pyrimidin-5-yl]-4-pyridyl]methyl]-4-fluoro-1-(4-fluorophenyl)sulfonyl-pyrrolidine-2-carboxamide], the concentration for half-maximal inhibition (IC50) stood at 71 nM.

On to `O=C(NCc1cc(Cl)nc(-c2cnc(C(F)(F)F)nc2)c1)[C@@H]1C[C@@H](F)CN1S(=O)(=O)c1ccc(F)cc1` [Example 62, (2S,4R)—N-[[2-chloro-6-[2-(trifluoromethyl)pyrimidin-5-yl]-4-pyridyl]methyl]-4-fluoro-1-(4-fluorophenyl)sulfonyl-pyrrolidine-2-carboxamide], for which the IC50 was found to be 14 nM.

In the case of `O=C(NCc1cc(-c2ccc(C(F)F)cc2)ncn1)[C@@H]1C[C@@H](F)CN1S(=O)(=O)c1ccc(F)cc1` [Example 63, (2S,4R)—N-[[6-[4-(difluoromethyl)phenyl]pyrimidin-4-yl]methyl]-4-fluoro-1-(4-fluorophenyl)sulfonyl-pyrrolidine-2-carboxamide], the IC50 was 318 nM.

Consider `O=C(NCc1cc(-c2ccc(OC(F)F)cc2)ncn1)[C@@H]1C[C@@H](F)CN1S(=O)(=O)c1ccc(F)cc1` [Example 64, (2S,4R)—N-[[6-[4-(difluoromethoxy)phenyl]pyrimidin-4-yl]methyl]-4-fluoro-1-(4-fluorophenyl)sulfonyl-pyrrolidine-2-carboxamide], for which the concentration for half-maximal inhibition (IC50) was found to be 41 nM.

As to `O=C(NCc1cc(N2CCC(OC(F)(F)F)CC2)c(F)cn1)[C@@H]1C[C@@H](F)CN1S(=O)(=O)c1ccc(F)cc1` [Example 66, (2S,4R)-4-fluoro-1-(4-fluorophenyl)sulfonyl-N-[[5-fluoro-4-[4-(trifluoromethoxy)-1-piperidyl]-2-pyridyl]methyl]pyrrolidine-2-carboxamide], the IC50 stood at 22 nM.

As to `O=C(NCc1ccnc(-c2cnc(C(F)(F)F)cn2)c1)[C@@H]1C[C@@H](F)CN1S(=O)(=O)c1ccc(F)cc1` [Example 67, (2S,4R)-4-fluoro-1-(4-fluorophenyl)sulfonyl-N-[[2-[5-(trifluoromethyl)pyrazin-2-yl]-4-pyridyl]methyl]pyrrolidine-2-carboxamide], the half-maximal inhibitory concentration (IC50) was 290 nM.

As for `O=C(NCc1cc(F)cc(-c2cnc(C(F)(F)F)nc2)c1)[C@@H]1[C@@H](F)CCN1S(=O)(=O)c1ccc(F)cc1` [Example 68, (2R,3S)-3-fluoro-1-(4-fluorophenyl)sulfonyl-N-[[3-fluoro-5-[2-(trifluoromethyl)pyrimidin-5-yl]phenyl]methyl]pyrrolidine-2-carboxamide], the IC50 is 7 nM.

Turning to `O=C(NCc1cc(N2CCC3(CC2)CC3(F)F)c(F)cn1)[C@@H]1C[C@@H](F)CN1S(=O)(=O)c1ccc(F)cc1` [Example 69, (2S,4R)—N-[[4-(2,2-difluoro-6-azaspiro[2.5]octan-6-yl)-5-fluoro-2-pyridyl]methyl]-4-fluoro-1-(4-fluorophenyl)sulfonyl-pyrrolidine-2-carboxamide], the IC50 came out at 14 nM.

For the compound `N#Cc1cnc(CNC(=O)[C@@H]2C[C@@H](F)CN2S(=O)(=O)c2ccc(F)cc2)cc1-c1ccc(C(F)(F)F)cc1` [Example 70, (2S,4R)—N-((5-cyano-4-(4-(trifluoromethyl)phenyl)pyridin-2-yl)methyl)-4-fluoro-1-(4-fluorophenylsulfonyl)pyrrolidine-2-carboxamide], the concentration for half-maximal inhibition (IC50) is 23 nM.

Turning to `N#Cc1cnc(CNC(=O)[C@@H]2C[C@@H](F)CN2S(=O)(=O)c2ccc(F)cc2)cc1-c1ccc(C(F)(F)F)nc1` [Example 71, (2S,4R)—N-[[5-cyano-4-[6-(trifluoromethyl)-3-pyridyl]-2-pyridyl]methyl]-4-fluoro-1-(4-fluorophenyl)sulfonyl-pyrrolidine-2-carboxamide], the IC50 worked out at 176 nM.

In the case of `O=C(NCc1cc(-c2ccc(C(F)(F)F)cn2)ccn1)[C@@H]1[C@@H](F)CCN1S(=O)(=O)c1ccc(F)cc1` [Example 72, (2R,3S)-3-fluoro-1-(4-fluorophenyl)sulfonyl-N-[[4-[5-(trifluoromethyl)-2-pyridyl]-2-pyridyl]methyl]pyrrolidine-2-carboxamide], the concentration for half-maximal inhibition (IC50) worked out at 7 nM.

Consider `O=C(NCc1cc(F)cc(C2CCC(C(F)(F)F)CN2)c1)[C@@H]1C[C@@H](F)CN1S(=O)(=O)c1ccc(F)cc1` (stereo partly drawn) [Example 74, (2S,4R)-4-fluoro-1-(4-fluorophenyl)sulfonyl-N-[[3-fluoro-5-[5-(trifluoromethyl)-2-piperidyl]phenyl]methyl]pyrrolidine-2-carboxamide], for which the concentration for half-maximal inhibition (IC50) was 192 nM.

For the compound `O=C(NCc1cc(F)cc(-c2ccc(C(F)F)cn2)c1)[C@@H]1C[C@@H](F)CN1S(=O)(=O)c1ccc(F)cc1` [Example 75, (2S,4R)—N-[[3-[5-(difluoromethyl)-2-pyridyl]-5-fluoro-phenyl]methyl]-4-fluoro-1-(4-fluorophenyl)sulfonyl-pyrrolidine-2-carboxamide], the IC50 worked out at 31 nM.

Regarding `O=C(NCc1cc(F)cc(-c2ccc(OC(F)F)nc2)c1)[C@@H]1C[C@@H](F)CN1S(=O)(=O)c1ccc(F)cc1` [Example 76, (2S,4R)—N-([3-[6-(difluoromethoxy)pyridin-3-yl]-5-fluorophenyl]methyl)-4-fluoro-1-[(4-fluorobenzene)sulfonyl]pyrrolidine-2-carboxamide], the half-inhibitory concentration (IC50) is 39 nM.

`O=C(NCc1cc(-c2ccc(OC(F)F)cc2)c(F)cn1)[C@@H]1C[C@@H](F)CN1S(=O)(=O)c1ccc(F)cc1` [Example 77, (2S,4R)—N-([4-[4-(difluoromethoxy)phenyl]-5-fluoropyridin-2-yl]methyl)-4-fluoro-1-[(4-fluorobenzene)sulfonyl]pyrrolidine-2-carboxamide]: the IC50 was found to be 53 nM.

For the compound `N#Cc1cnc(-c2ccc(C(F)(F)F)cc2)cc1CNC(=O)[C@@H]1C[C@@H](F)CN1S(=O)(=O)c1ccc(F)cc1` [Example 78, (2S,4R)—N-([5-cyano-2-[4-(trifluoromethyl)phenyl]pyridin-4-yl]methyl)-4-fluoro-1-[(4-fluorobenzene)sulfonyl]pyrrolidine-2-carboxamide], the 50% inhibitory concentration (IC50) is 7 nM.

For `N#Cc1cnc(-c2ccc(C(F)(F)F)nc2)cc1CNC(=O)[C@@H]1C[C@@H](F)CN1S(=O)(=O)c1ccc(F)cc1` [Example 79, (2S,4R)—N-([5-cyano-2-[6-(trifluoromethyl)pyridin-3-yl]pyridin-4-yl]methyl)-4-fluoro-1-[(4-fluorobenzene)sulfonyl]pyrrolidine-2-carboxamide], the IC50 stood at 9 nM.

Consider `O=C(NCc1cc(-c2ccc(C(F)(F)F)nc2)ncn1)[C@@H]1CC2(CC2)CN1S(=O)(=O)c1ccc(F)cc1` [Example 80], for which the IC50 worked out at 44 nM.

As for `O=C(NCc1cc(-c2ccc(C(F)(F)F)nc2)ccn1)[C@@H]1C[C@@H](F)CN1S(=O)(=O)c1ccc(F)cc1` [Example 81, (2S,4R)-4-fluoro-1-(4-fluorophenyl)sulfonyl-N-[[4-[6-(trifluoromethyl)-3-pyridyl]-2-pyridyl]methyl]pyrrolidine-2-carboxamide], the IC50 was 187 nM.

With `O=C(NCc1cc(-c2cnc(C(F)(F)F)cn2)ccn1)[C@@H]1C[C@@H](F)CN1S(=O)(=O)c1ccc(F)cc1` [Example 82, (2S,4R)-4-fluoro-1-(4-fluorophenyl)sulfonyl-N-[[4-[5-(trifluoromethyl)pyrazin-2-yl]-2-pyridyl]methyl]pyrrolidine-2-carboxamide], the IC50 was 189 nM.

On to `O=C(NCc1cc(-c2ccc(C(F)(F)F)nc2)nc(-c2ccc(C(F)(F)F)nc2)c1)[C@@H]1C[C@@H](F)CN1S(=O)(=O)c1ccc(F)cc1` [Example 83, (2S,4R)—N-[[2,6-bis[6-(trifluoromethyl)-3-pyridyl]-4-pyridyl]methyl]-4-fluoro-1-(4-fluorophenyl)sulfonyl-pyrrolidine-2-carboxamide], for which the concentration for half-maximal inhibition (IC50) worked out at 54.6 nM.

Turning to `O=C(NCc1cc(Cl)nc(-c2ccc(C(F)(F)F)nc2)c1)[C@@H]1C[C@@H](F)CN1S(=O)(=O)c1ccc(F)cc1` [Example 84, (2S,4R)—N-[[2-chloro-6-[6-(trifluoromethyl)-3-pyridyl]-4-pyridyl]methyl]-4-fluoro-1-(4-fluorophenyl)sulfonyl-pyrrolidine-2-carboxamide], the IC50 was 14 nM.

With `O=C(NCc1cc(F)cc(-n2ccc(C(F)(F)F)cc2=O)c1)[C@@H]1C[C@@H](F)CN1S(=O)(=O)c1ccc(F)cc1` [Example 85, (2S,4R)-4-fluoro-N-[[3-fluoro-5-[2-oxo-4-(trifluoromethyl)-1-pyridyl]phenyl]methyl]-1-(4-fluorophenyl)sulfonyl-pyrrolidine-2-carboxamide], the IC50 came out at 771 nM.

Consider `O=C(NCc1cc(F)cc(-n2cc(C(F)(F)F)cn2)c1)[C@@H]1C[C@@H](F)CN1S(=O)(=O)c1ccc(F)cc1` [Example 86, (2S,4R)-4-fluoro-1-(4-fluorophenyl)sulfonyl-N-[[3-fluoro-5-[4-(trifluoromethyl)pyrazol-1-yl]phenyl]methyl]pyrrolidine-2-carboxamide], for which the IC50 turned out to be 119 nM.
